Tested on: Genes belonging to other category
Assay: DNA chip mRNA expression in yeast, genes belonging to other category (Table 9)
Type: cell-based, Saccharomyces cerevisiae S288C
How it was run: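 In this screen, yeast in logarithmic growth are challenged for two hours with a toxic substance at a non-lethal inhibitory concentration. Their mRNA, converted to Cy3- or Cy5-labeled cDNA, hybridizes at 65° C. to a chip spanning every yeast gene, and expression is expressed as a ratio to untreated cells.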

## CN(C)C(=S)SSC(=S)N(C)C [(10), Tetramethylthiuram disulfide]
Yeast gene YMR314W
  The level of expressed mRNA in the presence of chemical substance/The level of expressed mRNA in the absence of chemical substance: 2.7
Yeast gene YNL006W
  The level of expressed mRNA in the presence of chemical substance/The level of expressed mRNA in the absence of chemical substance: 4.0
Yeast gene YNL007C
  The level of expressed mRNA in the presence of chemical substance/The level of expressed mRNA in the absence of chemical substance: 1.7
Yeast gene YNL083W
  The level of expressed mRNA in the presence of chemical substance/The level of expressed mRNA in the absence of chemical substance: 1.6
Yeast gene YNL093W
  The level of expressed mRNA in the presence of chemical substance/The level of expressed mRNA in the absence of chemical substance: 2.0
Yeast gene YNL135C
  The level of expressed mRNA in the presence of chemical substance/The level of expressed mRNA in the absence of chemical substance: 0.5
Yeast gene YNL139C
  The level of expressed mRNA in the presence of chemical substance/The level of expressed mRNA in the absence of chemical substance: 0.7
Yeast gene YNL333W
  The level of expressed mRNA in the presence of chemical substance/The level of expressed mRNA in the absence of chemical substance: 2.1
Yeast gene YNR010W
  The level of expressed mRNA in the presence of chemical substance/The level of expressed mRNA in the absence of chemical substance: 0.9
Yeast gene YNR069C
  The level of expressed mRNA in the presence of chemical substance/The level of expressed mRNA in the absence of chemical substance: 5.8
Yeast gene YOL013C
  The level of expressed mRNA in the presence of chemical substance/The level of expressed mRNA in the absence of chemical substance: 1.0
Yeast gene YOL038W
  The level of expressed mRNA in the presence of chemical substance/The level of expressed mRNA in the absence of chemical substance: 2.7
Yeast gene YOL164W
  The level of expressed mRNA in the presence of chemical substance/The level of expressed mRNA in the absence of chemical substance: 3.6
Yeast gene YOR028C
  The level of expressed mRNA in the presence of chemical substance/The level of expressed mRNA in the absence of chemical substance: 2.0
Yeast gene YOR036W
  The level of expressed mRNA in the presence of chemical substance/The level of expressed mRNA in the absence of chemical substance: 1.9
Yeast gene YOR058C
  The level of expressed mRNA in the presence of chemical substance/The level of expressed mRNA in the absence of chemical substance: 4.5
Yeast gene YOR117W
  The level of expressed mRNA in the presence of chemical substance/The level of expressed mRNA in the absence of chemical substance: 1.8
Yeast gene YOR124C
  The level of expressed mRNA in the presence of chemical substance/The level of expressed mRNA in the absence of chemical substance: 1.9
Yeast gene YOR132W
  The level of expressed mRNA in the presence of chemical substance/The level of expressed mRNA in the absence of chemical substance: 1.6
Yeast gene YOR149C
  The level of expressed mRNA in the presence of chemical substance/The level of expressed mRNA in the absence of chemical substance: 1.0
Yeast gene YOR157C
  The level of expressed mRNA in the presence of chemical substance/The level of expressed mRNA in the absence of chemical substance: 2.6
Yeast gene YOR181W
  The level of expressed mRNA in the presence of chemical substance/The level of expressed mRNA in the absence of chemical substance: 0.5
Yeast gene YOR185C
  The level of expressed mRNA in the presence of chemical substance/The level of expressed mRNA in the absence of chemical substance: 2.9
Yeast gene YOR198C
  The level of expressed mRNA in the presence of chemical substance/The level of expressed mRNA in the absence of chemical substance: 1.4
Yeast gene YOR259C
  The level of expressed mRNA in the presence of chemical substance/The level of expressed mRNA in the absence of chemical substance: 1.5
Yeast gene YOR261C
  The level of expressed mRNA in the presence of chemical substance/The level of expressed mRNA in the absence of chemical substance: 2.5
Yeast gene YOR285W
  The level of expressed mRNA in the presence of chemical substance/The level of expressed mRNA in the absence of chemical substance: 2.9
Yeast gene YOR288C
  The level of expressed mRNA in the presence of chemical substance/The level of expressed mRNA in the absence of chemical substance: 1.0
Yeast gene YOR298W
  The level of expressed mRNA in the presence of chemical substance/The level of expressed mRNA in the absence of chemical substance: 1.0
Yeast gene YOR355W
  The level of expressed mRNA in the presence of chemical substance/The level of expressed mRNA in the absence of chemical substance: 0.8
Yeast gene YOR383C
  The level of expressed mRNA in the presence of chemical substance/The level of expressed mRNA in the absence of chemical substance: 4.5
Yeast gene YPL001W
  The level of expressed mRNA in the presence of chemical substance/The level of expressed mRNA in the absence of chemical substance: 1.0
Yeast gene YPL020C
  The level of expressed mRNA in the presence of chemical substance/The level of expressed mRNA in the absence of chemical substance: 1.6
Yeast gene YPL089C
  The level of expressed mRNA in the presence of chemical substance/The level of expressed mRNA in the absence of chemical substance: 2.5
Yeast gene YPL109C
  The level of expressed mRNA in the presence of chemical substance/The level of expressed mRNA in the absence of chemical substance: 1.5
Yeast gene YPL124W
  The level of expressed mRNA in the presence of chemical substance/The level of expressed mRNA in the absence of chemical substance: 1.0
Yeast gene YPL149W
  The level of expressed mRNA in the presence of chemical substance/The level of expressed mRNA in the absence of chemical substance: 3.7
Yeast gene YPL154C
  The level of expressed mRNA in the presence of chemical substance/The level of expressed mRNA in the absence of chemical substance: 1.7
Yeast gene YPL177C
  The level of expressed mRNA in the presence of chemical substance/The level of expressed mRNA in the absence of chemical substance: 1.0
Yeast gene YPL220W
  The level of expressed mRNA in the presence of chemical substance/The level of expressed mRNA in the absence of chemical substance: 0.5
Yeast gene YPL230W
  The level of expressed mRNA in the presence of chemical substance/The level of expressed mRNA in the absence of chemical substance: 2.7
Yeast gene YPR081C
  The level of expressed mRNA in the presence of chemical substance/The level of expressed mRNA in the absence of chemical substance: 2.6
Yeast gene YPR103W
  The level of expressed mRNA in the presence of chemical substance/The level of expressed mRNA in the absence of chemical substance: 2.0
Yeast gene YPR108W
  The level of expressed mRNA in the presence of chemical substance/The level of expressed mRNA in the absence of chemical substance: 2.8
Yeast gene YPR149W
  The level of expressed mRNA in the presence of chemical substance/The level of expressed mRNA in the absence of chemical substance: 1.8
Yeast gene YPR168W
  The level of expressed mRNA in the presence of chemical substance/The level of expressed mRNA in the absence of chemical substance: 2.7
